Measurements reported in the NIST ThermoML archive (doi:10.1021/je049909d).
± gives the expanded uncertainty stated by the source.

Assays:
[1] = Liquid; for mass density / speed of sound: 298.15 K, 101.33 kPa; for speed of sound: Sing-around technique in a fixed-path interferometer
[2] = refractive index (Na D-line) (dimensionless); conditions: 298.15 K; 101.33 kPa; Liquid; Standard Abbe refractometry
[3] = xn = mol fraction of the nth substance listed; conditions: 298.15 K, 101.3 kPa, Liquid; for speed of sound: Sing-around technique in a fixed-path interferometer
[4] = refractive index (Na D-line) (dimensionless); xn = mol fraction of the nth substance listed; conditions: 298.15 K, 101.3 kPa, Liquid, Standard Abbe refractometry

CO [methanol]
mass density [1]: 786.56 ± 0.31 kg/m3 | speed of sound [1]: 1101.8 ± 0.9 m/s | vapor or sublimation pressure ([1]; 337.9 K): 101.3 ± 1 kPa | refractive index [2]: 1.32634 ± 0.00072

C=COC(C)=O [vinyl acetate]
mass density [1]: 925.59 ± 0.25 kg/m3 | speed of sound [1]: 1115.6 ± 1 m/s | vapor or sublimation pressure ([1]; 346.1 K): 101.3 ± 1 kPa | refractive index [2]: 1.39253 ± 0.00073

C=COC(=O)CC [vinyl propanoate]
mass density [1]: 909.69 ± 0.26 kg/m3 | speed of sound [1]: 1133.9 ± 1 m/s | vapor or sublimation pressure ([1]; 320.7 K, Ebulliometric method (Recirculating still)): 17.5 ± 0.2 kPa | vapor or sublimation pressure ([1]; 325.3 K, Ebulliometric method (Recirculating still)): 21.5 ± 0.2 kPa | vapor or sublimation pressure ([1]; 329.4 K, Ebulliometric method (Recirculating still)): 25.5 ± 0.2 kPa | vapor or sublimation pressure ([1]; 333 K, Ebulliometric method (Recirculating still)): 29.5 ± 0.3 kPa | vapor or sublimation pressure ([1]; 336.3 K, Ebulliometric method (Recirculating still)): 33.5 ± 0.3 kPa | vapor or sublimation pressure ([1]; 339.3 K, Ebulliometric method (Recirculating still)): 37.5 ± 0.3 kPa | vapor or sublimation pressure ([1]; 341.9 K, Ebulliometric method (Recirculating still)): 41.5 ± 0.3 kPa | vapor or sublimation pressure ([1]; 344.4 K, Ebulliometric method (Recirculating still)): 45.5 ± 0.3 kPa | vapor or sublimation pressure ([1]; 346.8 K, Ebulliometric method (Recirculating still)): 49.5 ± 0.4 kPa | vapor or sublimation pressure ([1]; 348.9 K, Ebulliometric method (Recirculating still)): 53.5 ± 0.4 kPa | vapor or sublimation pressure ([1]; 350.9 K, Ebulliometric method (Recirculating still)): 57.5 ± 0.4 kPa | vapor or sublimation pressure ([1]; 352.8 K, Ebulliometric method (Recirculating still)): 61.5 ± 0.4 kPa | vapor or sublimation pressure ([1]; 354.7 K, Ebulliometric method (Recirculating still)): 65.5 ± 0.5 kPa | vapor or sublimation pressure ([1]; 356.3 K, Ebulliometric method (Recirculating still)): 69.5 ± 0.5 kPa | vapor or sublimation pressure ([1]; 358 K, Ebulliometric method (Recirculating still)): 73.5 ± 0.5 kPa | vapor or sublimation pressure ([1]; 359.6 K, Ebulliometric method (Recirculating still)): 77.5 ± 0.5 kPa | vapor or sublimation pressure ([1]; 361.1 K, Ebulliometric method (Recirculating still)): 81.5 ± 0.5 kPa | vapor or sublimation pressure ([1]; 362.6 K, Ebulliometric method (Recirculating still)): 85.5 ± 0.6 kPa | vapor or sublimation pressure ([1]; 364 K, Ebulliometric method (Recirculating still)): 89.5 ± 0.6 kPa | vapor or sublimation pressure ([1]; 365.4 K, Ebulliometric method (Recirculating still)): 93.5 ± 0.6 kPa | vapor or sublimation pressure ([1]; 366.7 K, Ebulliometric method (Recirculating still)): 97.5 ± 0.6 kPa | vapor or sublimation pressure ([1]; 368 K, Ebulliometric method (Recirculating still)): 101.3 ± 1 kPa | vapor or sublimation pressure ([1]; 368.1 K, Ebulliometric method (Recirculating still)): 101.3 ± 1 kPa | refractive index [2]: 1.40153 ± 0.00073

C=COC(=O)CC [vinyl propanoate] + C=COC(C)=O
speed of sound ([3]; x2 = 0.05): 1132.8 ± 1 m/s | speed of sound ([3]; x2 = 0.102): 1131.8 ± 1 m/s | speed of sound ([3]; x2 = 0.167): 1130.5 ± 1 m/s | speed of sound ([3]; x2 = 0.207): 1129.7 ± 1 m/s | speed of sound ([3]; x2 = 0.264): 1128.6 ± 1 m/s | speed of sound ([3]; x2 = 0.297): 1128 ± 1 m/s | speed of sound ([3]; x2 = 0.354): 1126.9 ± 1 m/s | speed of sound ([3]; x2 = 0.403): 1126 ± 1 m/s | speed of sound ([3]; x2 = 0.466): 1124.9 ± 1 m/s | speed of sound ([3]; x2 = 0.504): 1124.2 ± 1 m/s | speed of sound ([3]; x2 = 0.545): 1123.4 ± 1 m/s | speed of sound ([3]; x2 = 0.601): 1122.4 ± 1 m/s | speed of sound ([3]; x2 = 0.65): 1121.6 ± 1 m/s | speed of sound ([3]; x2 = 0.696): 1120.8 ± 1 m/s | speed of sound ([3]; x2 = 0.753): 1119.8 ± 1 m/s | speed of sound ([3]; x2 = 0.8): 1119 ± 1 m/s | speed of sound ([3]; x2 = 0.839): 1118.3 ± 1 m/s | speed of sound ([3]; x2 = 0.901): 1117.2 ± 1 m/s | speed of sound ([3]; x2 = 0.955): 1116.3 ± 1 m/s | mass density ([3]; x2 = 0.05): 910.31 ± 0.25 kg/m3 | mass density ([3]; x2 = 0.102): 911.01 ± 0.25 kg/m3 | mass density ([3]; x2 = 0.167): 911.87 ± 0.25 kg/m3 | mass density ([3]; x2 = 0.207): 912.4 ± 0.25 kg/m3 | mass density ([3]; x2 = 0.264): 913.2 ± 0.25 kg/m3 | mass density ([3]; x2 = 0.297): 913.66 ± 0.25 kg/m3 | mass density ([3]; x2 = 0.354): 914.5 ± 0.25 kg/m3 | mass density ([3]; x2 = 0.403): 915.25 ± 0.25 kg/m3 | mass density ([3]; x2 = 0.466): 916.22 ± 0.25 kg/m3 | mass density ([3]; x2 = 0.504): 916.8 ± 0.25 kg/m3 | mass density ([3]; x2 = 0.545): 917.48 ± 0.25 kg/m3 | mass density ([3]; x2 = 0.601): 918.39 ± 0.25 kg/m3 | mass density ([3]; x2 = 0.65): 919.18 ± 0.25 kg/m3 | mass density ([3]; x2 = 0.696): 919.96 ± 0.25 kg/m3 | mass density ([3]; x2 = 0.753): 920.95 ± 0.25 kg/m3 | mass density ([3]; x2 = 0.8): 921.79 ± 0.25 kg/m3 | mass density ([3]; x2 = 0.839): 922.51 ± 0.25 kg/m3 | mass density ([3]; x2 = 0.901): 923.67 ± 0.25 kg/m3 | mass density ([3]; x2 = 0.955): 924.72 ± 0.25 kg/m3 | refractive index ([4]; x2 = 0.05): 1.40114 ± 0.00073 | refractive index ([4]; x2 = 0.102): 1.4007 ± 0.00073 | refractive index ([4]; x2 = 0.167): 1.40017 ± 0.00073 | refractive index ([4]; x2 = 0.207): 1.39986 ± 0.00073 | refractive index ([4]; x2 = 0.264): 1.39937 ± 0.00073 | refractive index ([4]; x2 = 0.297): 1.39906 ± 0.00073 | refractive index ([4]; x2 = 0.354): 1.3985 ± 0.00073 | refractive index ([4]; x2 = 0.403): 1.39817 ± 0.00073 | refractive index ([4]; x2 = 0.466): 1.39762 ± 0.00073 | refractive index ([4]; x2 = 0.504): 1.3973 ± 0.00073 | refractive index ([4]; x2 = 0.545): 1.3969 ± 0.00073 | refractive index ([4]; x2 = 0.601): 1.3964 ± 0.00073 | refractive index ([4]; x2 = 0.65): 1.39591 ± 0.00073 | refractive index ([4]; x2 = 0.696): 1.39554 ± 0.00073 | refractive index ([4]; x2 = 0.753): 1.39493 ± 0.00073 | refractive index ([4]; x2 = 0.8): 1.39456 ± 0.00073 | refractive index ([4]; x2 = 0.839): 1.3941 ± 0.00073 | refractive index ([4]; x2 = 0.901): 1.39358 ± 0.00073 | refractive index ([4]; x2 = 0.955): 1.39295 ± 0.00073

C=COC(=O)CC [vinyl propanoate] + CO
speed of sound ([3]; x2 = 0.05): 1132.9 ± 1 m/s | speed of sound ([3]; x2 = 0.101): 1131.7 ± 1 m/s | speed of sound ([3]; x2 = 0.168): 1130.2 ± 1 m/s | speed of sound ([3]; x2 = 0.198): 1129.5 ± 1 m/s | speed of sound ([3]; x2 = 0.242): 1128.4 ± 1 m/s | speed of sound ([3]; x2 = 0.311): 1126.7 ± 1 m/s | speed of sound ([3]; x2 = 0.337): 1126 ± 1 m/s | speed of sound ([3]; x2 = 0.39): 1124.6 ± 1 m/s | speed of sound ([3]; x2 = 0.452): 1122.8 ± 1 m/s | speed of sound ([3]; x2 = 0.526): 1120.5 ± 1 m/s | speed of sound ([3]; x2 = 0.547): 1119.8 ± 1 m/s | speed of sound ([3]; x2 = 0.597): 1118 ± 1 m/s | speed of sound ([3]; x2 = 0.657): 1115.9 ± 0.9 m/s | speed of sound ([3]; x2 = 0.708): 1114.1 ± 0.9 m/s | speed of sound ([3]; x2 = 0.748): 1112.6 ± 0.9 m/s | speed of sound ([3]; x2 = 0.8): 1110.7 ± 0.9 m/s | speed of sound ([3]; x2 = 0.85): 1108.7 ± 0.9 m/s | speed of sound ([3]; x2 = 0.899): 1106.5 ± 0.9 m/s | speed of sound ([3]; x2 = 0.949): 1104.9 ± 0.9 m/s | mass density ([3]; x2 = 0.05): 907.45 ± 0.25 kg/m3 | mass density ([3]; x2 = 0.101): 905 ± 0.25 kg/m3 | mass density ([3]; x2 = 0.168): 901.52 ± 0.25 kg/m3 | mass density ([3]; x2 = 0.198): 899.81 ± 0.25 kg/m3 | mass density ([3]; x2 = 0.242): 897.25 ± 0.25 kg/m3 | mass density ([3]; x2 = 0.311): 892.66 ± 0.25 kg/m3 | mass density ([3]; x2 = 0.337): 890.92 ± 0.25 kg/m3 | mass density ([3]; x2 = 0.39): 886.94 ± 0.25 kg/m3 | mass density ([3]; x2 = 0.452): 881.8 ± 0.25 kg/m3 | mass density ([3]; x2 = 0.526): 874.78 ± 0.25 kg/m3 | mass density ([3]; x2 = 0.547): 872.66 ± 0.25 kg/m3 | mass density ([3]; x2 = 0.597): 867.2 ± 0.26 kg/m3 | mass density ([3]; x2 = 0.657): 859.7 ± 0.26 kg/m3 | mass density ([3]; x2 = 0.708): 852.65 ± 0.26 kg/m3 | mass density ([3]; x2 = 0.748): 846.29 ± 0.27 kg/m3 | mass density ([3]; x2 = 0.8): 837.26 ± 0.27 kg/m3 | mass density ([3]; x2 = 0.85): 827.36 ± 0.28 kg/m3 | mass density ([3]; x2 = 0.899): 816.21 ± 0.28 kg/m3 | mass density ([3]; x2 = 0.949): 803.01 ± 0.29 kg/m3 | refractive index ([4]; x2 = 0.05): 1.40022 ± 0.00073 | refractive index ([4]; x2 = 0.101): 1.39881 ± 0.00073 | refractive index ([4]; x2 = 0.168): 1.3968 ± 0.00072 | refractive index ([4]; x2 = 0.198): 1.39573 ± 0.00072 | refractive index ([4]; x2 = 0.242): 1.39416 ± 0.00072 | refractive index ([4]; x2 = 0.311): 1.39141 ± 0.00072 | refractive index ([4]; x2 = 0.337): 1.39039 ± 0.00072 | refractive index ([4]; x2 = 0.39): 1.38789 ± 0.00072 | refractive index ([4]; x2 = 0.452): 1.38474 ± 0.00072 | refractive index ([4]; x2 = 0.526): 1.38044 ± 0.00072 | refractive index ([4]; x2 = 0.547): 1.37911 ± 0.00072 | refractive index ([4]; x2 = 0.597): 1.37583 ± 0.00072 | refractive index ([4]; x2 = 0.657): 1.37115 ± 0.00072 | refractive index ([4]; x2 = 0.708): 1.36685 ± 0.00072 | refractive index ([4]; x2 = 0.748): 1.36283 ± 0.00072 | refractive index ([4]; x2 = 0.8): 1.35725 ± 0.00072 | refractive index ([4]; x2 = 0.85): 1.3512 ± 0.00072 | refractive index ([4]; x2 = 0.899): 1.34444 ± 0.00072 | refractive index ([4]; x2 = 0.949): 1.33649 ± 0.00072
